# From patent publication US12097202B2 (Kadmon Corporation, LLC, priority 2022, dated 2024)
# Legend:
# [1] = system: pregnant rats; assay: Embryo-fetal development studies in rats; assay type: in vivo, rat; conditions: oral, organogenesis, pilot study
# Protocol: In the pilot study, maternal toxicity and embryo-fetal developmental effects were observed. Maternal toxicity (reduced body weight gain) occurred at 150 and 300 mg/kg/day doses. Increased post-implantation loss occurred at 50 and 300 mg/kg/day.
# [2] = system: patients with chronic GVHD; conditions: human, in vivo;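 note: allogeneic HCT recipients aged ≥12 years with persistent cGVHD after two to five earlier systemic treatment lines, responses judged by site investigators, 12-month analysis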
# Source text: Concomitant treatment with supportive care therapies for chronic GVHD was permitted. […] Initiation of new systemic chronic GVHD therapy while on study was not permitted.
# Eligible subjects were allogeneic hematopoietic cell transplant recipients aged ≥12 years with persistent cGVHD manifestations after receiving 2 to 5 prior systemic lines of therapy. Subjects were required to be receiving stable corticosteroid therapy for 2 weeks prior to screening and to have a Karnofsky or Lansky Performance Status Scale score≥60. Certain concurrent immunosuppressive medications were allowed because drug-drug interactions were not anticipated.
# Randomization was stratified (1:1) by cGVHD severity and prior exposure to ibrutinib.
# All responses were assessed by the study site investigators. Secondary end points included duration of response (DOR), time to response, changes in LSS summary score, failure-free survival (FFS), corticosteroid dose reductions, and overall survival (OS). DOR was measured from the time of initial PR or CR until documented progression from best response of cGVHD, time from initial response to start of additional systemic cGVHD therapy, or death. The 7-day LSS summary score was calculated based on the developer recommendations and was compared with the score from baseline; an improvement ≥7 points was considered clinically meaningful. […] Relative dose intensity (RDI) was used as a surrogate measure of drug tolerability and was defined as actual dose intensity/planned dose intensity, where dose intensity was defined as the cumulative dose over the duration of exposure (mg/d). Actual dose intensity captured the sum of actual doses received over the duration of exposure and incorporated dose reductions and/or interruptions.
# The Hochberg procedure was used for multiplicity adjustment for the primary end point of best ORR. […] CI was calculated using the Clopper-Pearson interval (exact) method.
# [3] = Clinical pharmacokinetics in healthy subjects (bioavailability, food effect, distribution, excretion); assay type: in vivo, human
# [4] = biological target: CYP2D6 (Homo sapiens, UniProt P10635); assay: In vitro enzyme inhibition, CYP2D6; assay type: in vitro ADME
# CYP2D6, sequence (P10635 whole entry): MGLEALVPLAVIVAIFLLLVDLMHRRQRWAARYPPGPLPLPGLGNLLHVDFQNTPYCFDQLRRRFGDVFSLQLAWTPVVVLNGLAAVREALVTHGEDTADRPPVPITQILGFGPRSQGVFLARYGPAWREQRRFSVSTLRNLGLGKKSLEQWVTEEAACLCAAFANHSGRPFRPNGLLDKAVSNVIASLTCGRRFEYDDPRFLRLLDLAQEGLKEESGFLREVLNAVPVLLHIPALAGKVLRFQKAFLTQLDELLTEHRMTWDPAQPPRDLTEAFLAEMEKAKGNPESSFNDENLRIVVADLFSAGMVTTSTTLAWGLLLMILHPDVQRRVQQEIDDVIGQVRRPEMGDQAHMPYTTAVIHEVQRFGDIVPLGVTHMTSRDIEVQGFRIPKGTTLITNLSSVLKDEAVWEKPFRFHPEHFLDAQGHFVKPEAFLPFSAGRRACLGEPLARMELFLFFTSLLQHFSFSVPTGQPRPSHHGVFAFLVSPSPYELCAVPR
# [5] = biological target: T1, OATP1B1 (Homo sapiens, UniProt Q9Y6L6); assay: In vitro transporter study, OATP1B1; assay type: in vitro ADME; conditions: at clinically relevant concentrations
# T1 sequence (Q9Y6L6 1-691): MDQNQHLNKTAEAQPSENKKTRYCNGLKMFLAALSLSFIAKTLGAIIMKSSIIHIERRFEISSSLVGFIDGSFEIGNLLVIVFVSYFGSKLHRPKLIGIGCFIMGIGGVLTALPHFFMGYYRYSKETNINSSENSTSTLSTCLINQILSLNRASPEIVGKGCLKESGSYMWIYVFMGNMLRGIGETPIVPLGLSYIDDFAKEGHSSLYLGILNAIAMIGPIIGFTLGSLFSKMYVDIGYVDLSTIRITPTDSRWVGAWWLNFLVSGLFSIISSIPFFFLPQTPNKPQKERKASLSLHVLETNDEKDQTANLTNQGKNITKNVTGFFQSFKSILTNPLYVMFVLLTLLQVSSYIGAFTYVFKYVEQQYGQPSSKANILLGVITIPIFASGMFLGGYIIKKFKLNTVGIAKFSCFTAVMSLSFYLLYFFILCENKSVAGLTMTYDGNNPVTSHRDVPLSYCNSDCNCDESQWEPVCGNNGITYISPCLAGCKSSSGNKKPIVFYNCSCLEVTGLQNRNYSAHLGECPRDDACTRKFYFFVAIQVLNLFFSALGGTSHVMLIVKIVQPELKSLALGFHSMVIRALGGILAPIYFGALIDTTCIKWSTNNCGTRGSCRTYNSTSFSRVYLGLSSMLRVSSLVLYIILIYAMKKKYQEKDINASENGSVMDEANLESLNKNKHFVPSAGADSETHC
# [6] = Clinical drug interaction studies, effects of other drugs on belumosudil in healthy subjects; assay type: in vivo, human
# [7] = biological target: T2, CYP1A2 (Homo sapiens, UniProt P05177); assay: In vitro enzyme inhibition, CYP1A2; assay type: in vitro ADME
# T2 sequence (P05177 1-516): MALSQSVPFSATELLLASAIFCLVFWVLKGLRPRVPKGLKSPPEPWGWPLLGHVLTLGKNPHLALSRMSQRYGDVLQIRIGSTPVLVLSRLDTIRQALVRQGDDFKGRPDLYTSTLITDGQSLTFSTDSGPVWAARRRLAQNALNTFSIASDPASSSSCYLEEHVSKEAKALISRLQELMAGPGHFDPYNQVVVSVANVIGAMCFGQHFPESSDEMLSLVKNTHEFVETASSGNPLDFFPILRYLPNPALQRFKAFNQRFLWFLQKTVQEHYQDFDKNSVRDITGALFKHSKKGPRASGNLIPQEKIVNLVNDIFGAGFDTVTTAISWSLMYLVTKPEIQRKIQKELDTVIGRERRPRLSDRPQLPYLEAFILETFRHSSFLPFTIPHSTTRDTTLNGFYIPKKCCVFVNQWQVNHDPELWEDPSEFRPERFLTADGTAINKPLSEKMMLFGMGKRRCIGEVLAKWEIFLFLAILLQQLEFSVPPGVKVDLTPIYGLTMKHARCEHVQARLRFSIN
# [8] = system: bacterial mutagenicity (Ames); assay: in vitro bacterial mutagenicity (Ames) assay; assay type: cell-based
# [9] = system: dogs; assay: General toxicology studies in dogs; assay type: in vivo, dog
# [10] = biological target: CYP2C19 (Homo sapiens, UniProt P33261); assay: In vitro enzyme inhibition, CYP2C19; assay type: in vitro ADME
# CYP2C19, sequence (P33261 whole entry): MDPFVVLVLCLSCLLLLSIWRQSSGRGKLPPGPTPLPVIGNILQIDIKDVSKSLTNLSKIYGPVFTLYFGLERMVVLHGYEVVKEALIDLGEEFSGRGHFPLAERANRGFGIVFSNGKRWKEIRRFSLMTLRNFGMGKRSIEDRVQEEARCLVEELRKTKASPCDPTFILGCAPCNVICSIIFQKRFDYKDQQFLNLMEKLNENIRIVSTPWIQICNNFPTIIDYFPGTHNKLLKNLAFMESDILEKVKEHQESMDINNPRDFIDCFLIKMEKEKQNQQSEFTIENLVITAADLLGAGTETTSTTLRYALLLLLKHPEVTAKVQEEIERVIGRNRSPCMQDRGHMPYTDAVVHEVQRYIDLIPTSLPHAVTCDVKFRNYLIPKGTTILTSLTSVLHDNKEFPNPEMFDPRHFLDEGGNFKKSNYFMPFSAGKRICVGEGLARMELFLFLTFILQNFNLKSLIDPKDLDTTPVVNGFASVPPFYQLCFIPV
# [11] = biological target: CYP3A4 (Homo sapiens, UniProt P08684); assay: In vitro metabolism by CYP3A4; assay type: in vitro ADME
# CYP3A4, sequence (P08684 whole entry): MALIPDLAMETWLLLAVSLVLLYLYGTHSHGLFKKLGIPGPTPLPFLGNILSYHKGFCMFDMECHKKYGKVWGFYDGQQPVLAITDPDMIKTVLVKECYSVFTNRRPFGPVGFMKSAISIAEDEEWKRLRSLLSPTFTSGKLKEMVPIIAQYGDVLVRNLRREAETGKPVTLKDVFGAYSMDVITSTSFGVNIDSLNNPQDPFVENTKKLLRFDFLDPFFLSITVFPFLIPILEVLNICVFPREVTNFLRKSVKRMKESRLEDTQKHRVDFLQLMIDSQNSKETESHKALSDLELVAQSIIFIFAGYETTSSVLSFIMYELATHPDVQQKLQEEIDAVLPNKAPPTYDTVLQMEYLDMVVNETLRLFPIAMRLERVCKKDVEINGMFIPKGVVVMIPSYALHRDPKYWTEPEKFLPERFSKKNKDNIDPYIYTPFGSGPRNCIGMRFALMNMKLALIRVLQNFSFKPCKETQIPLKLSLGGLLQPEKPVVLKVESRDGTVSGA
# [12] = single oral dose of radiolabeled belumosudil
smiles,measurement,setting,value
"CC(C)NC(=O)COc1cccc(-c2nc(Nc3ccc4[nH]ncc4c3)c3ccccc3n2)c1 [belumosudil, 2-{3-[4-(1H-indazol-5-ylamino)-2-quinazolinyl]phenoxy}-N-(propan-2-yl) acetamide]",doses at which fetal malformations were observed,[1],≥ 50 mg/kg/day
same,Upper respiratory tract infection,[2],(27) %
same,AUC increase with high-fat and high-calorie meal vs fasted,[3]; single dose,2 times
same,Cmax increase with high-fat and high-calorie meal vs fasted,[3]; single dose,2.2 times
same,radioactivity recovered in feces,[3]; [12],85%
same,radioactivity recovered in feces as unchanged,[3]; [12],30%
same,radioactivity recovered in urine,[3]; [12],less than 5%
same,inhibition of CYP2D6,[4],inhibitor
same,inhibition of OATP1B1,[5],inhibits
same,decrease of belumosudil AUC with omeprazole,[6],47%
same,decrease of belumosudil AUC with rabeprazole,[6],80%
same,decrease of belumosudil AUC with rifampin,[6],72%
same,decrease of belumosudil Cmax with omeprazole,[6],68%
same,decrease of belumosudil Cmax with rabeprazole,[6],87%
same,decrease of belumosudil Cmax with rifampin,[6],59%
same,effect of itraconazole (strong CYP3A inhibitor) on belumosudil exposure,[6],no clinically meaningful effect
same,inhibition of CYP1A2,[7],inhibitor
same,"genotoxicity, bacterial mutagenicity (Ames) assay",[8],not genotoxic
same,dose with spermatozoa degeneration,[9],35 mg/kg/day
same,inhibition of CYP2C19,[10],inhibitor
same,metabolism by CYP3A4,[11],primarily metabolized
